Source: ChEMBL document CHEMBL1153339, “Design, synthesis, and anti-HCV activity of thiourea compounds” (Bioorg Med Chem Lett, 2009)

Legend:
[1] = test system: Hepatitis C virus; test: Antiviral activity against HCV 1b infected in human Ava5 cells expressing EG(delta-4AB)SEAP fusion protein by subgenomic replicon assay; assay type: functional, organism-based, Hepacivirus hominis; conditions: genotype 1b
[2] = Cytotoxicity against human Ava5 cells; assay type: cell-based
[3] = Selectivity index, ratio of CC50 for human Ava5 cells to EC50 for HCV 1b

| SMILES | EC50 [1] | CC50 [2] | Ratio CC50/EC50 [3] |
| --- | --- | --- | --- |
| NC(=S)Nc1cccc(OCCCCCOc2ccccc2)c1 | 0.059 µM | > 50 µM | >847 |
| NC(=S)Nc1cccc(OCCCCCOc2ccc(C(=O)O)cc2)c1 | > 50 µM | > 50 µM | >1 |
| NC(=S)Nc1ccccc1OCCCCCc1ccccc1 | 1.01 µM | 31 µM | 31 |
| NC(=S)Nc1cccc(OCCCCCOc2ccc(N3CCCC3)cc2)c1 | 0.913 µM | 16 µM | 18 |
| CCN(CC)c1ccc(OCCCCCOc2cccc(NC(N)=S)c2)cc1 | 0.594 µM | > 50 µM | >84 |
| NC(=S)Nc1cccc(OCCCCCOc2cccc3ncccc23)c1 | 0.25 µM | 15 µM | 60 |
| NC(=S)Nc1cccc(OCCCCCCc2ccccc2)c1 | 0.047 µM | 28 µM | 596 |
| NC(=S)Nc1cccc(OCCCCCOc2ccccn2)c1 | 0.279 µM | > 50 µM | >179 |
| NC(=S)Nc1cccc(OCCCCCOc2cccnc2)c1 | 1.13 µM | > 50 µM | >44 |
| S=C(Nc1ccccc1)Nc1cccc(OCCCCCc2ccccc2)c1 | 31.5 µM | 35 µM | 1 |
| S=C(NCCc1ccccc1)Nc1cccc(OCCCCCc2ccccc2)c1 | 13.4 µM | 33 µM | 2 |
| NC(=S)Nc1cccc(OCCCCCOc2cccc(Cc3ccccc3)c2)c1 | 0.058 µM | 13 µM | 224 |
| NC(=S)Nc1cccc(OCCCCCOc2cccc(Oc3ccccc3)c2)c1 | 0.107 µM | 18 µM | 168 |
| NC(=S)Nc1cccc(OCCCCCOc2ccncc2)c1 | 2.99 µM | > 50 µM | >17 |
| NC(=S)Nc1cccc(OCCCCCOc2cccc3[nH]ccc23)c1 | 0.355 µM | > 50 µM | >141 |
| NC(=S)Nc1cccc(OCCCCCOc2cccc3cnccc23)c1 | 0.481 µM | 26 µM | 54 |
| NC(=S)Nc1cccc(OCCCc2ccccc2)c1 | 0.231 µM | > 50 µM | >216 |
| NC(=S)Nc1cccc(OCCc2ccccc2)c1 | 0.335 µM | > 50 µM | >149 |
| NC(=S)Nc1cccc(OCCCCCOc2ccccc2-c2ccccc2)c1 | 0.097 µM | 13 µM | 134 |
| NC(=S)Nc1cccc(OCCCCCOc2cccc3ccccc23)c1 | 0.058 µM | 14 µM | 241 |
| NC(=S)Nc1cccc(OCCCCc2ccccc2)c1 | 0.159 µM | > 50 µM | >314 |
| NC(=S)Nc1cccc(OCCCCCOc2ccc(-c3ccccc3)cc2)c1 | 0.191 µM | > 50 µM | >262 |
| NC(=S)Nc1cccc(OCCCCCOc2cccc(-c3ccccc3)c2)c1 | 0.214 µM | 13 µM | 61 |
| NC(=S)Nc1cccc(OCCCCCOc2ccc(-c3ccco3)cc2)c1 | 0.136 µM | 11 µM | 81 |

| SMILES | EC50 [1] | CC50 [2] | Ratio CC50/EC50 [3] |
| --- | --- | --- | --- |
| CC(CCOc1ccccc1)CCOc1cccc(NC(N)=S)c1 (stereo unspecified) | 0.104 µM | > 50 µM | >481 |
| CC(C)(CCOc1ccccc1)CCOc1cccc(NC(N)=S)c1 | 0.105 µM | 13 µM | 124 |
| NC(=S)Nc1cccc(OCCCCCOc2ccc(Br)cc2)c1 | 0.072 µM | 19 µM | 264 |
| COc1ccc(OCCCCCOc2cccc(NC(N)=S)c2)cc1 | 0.218 µM | > 50 µM | >229 |
| NC(=S)Nc1cccc(OCCCCCc2ccccc2)c1 | 0.048 µM | 22 µM | 458 |
| NC(=S)Nc1cccc(OCCCCCCCc2ccccc2)c1 | 0.097 µM | 23 µM | 237 |
| NC(=S)Nc1ccc(OCCCCCc2ccccc2)cc1 | 0.197 µM | 10 µM | 51 |
| NC(=S)Nc1cccc(NCCCCCc2ccccc2)c1 | 0.143 µM | > 50 µM | >350 |
| CCNC(=S)Nc1cccc(OCCCCCc2ccccc2)c1 | 0.685 µM | > 50 µM | >73 |
| CCCNC(=S)Nc1cccc(OCCCCCc2ccccc2)c1 | 0.708 µM | 32 µM | 45 |
| NC(=S)Nc1cccc(OCCCCCOc2cccc(Nc3ccccc3)c2)c1 | 0.177 µM | 11 µM | 62 |
| NC(=S)Nc1cccc(OCCCCCOc2cccc(C(=O)c3ccccc3)c2)c1 | 0.218 µM | 13 µM | 60 |
| NC(=S)Nc1cccc(OCc2ccccc2)c1 | 0.561 µM | > 50 µM | >89 |
| NC(=S)Nc1cccc(OCCCCCOc2ccc(N3CCCCC3)cc2)c1 | 0.407 µM | 12 µM | 29 |
| NC(=S)Nc1cccc(OCCCCCOc2ccc(N3CCOCC3)cc2)c1 | 0.485 µM | > 50 µM | >103 |
| NC(=S)Nc1cccc(Oc2ccccc2)c1 | 0.494 µM | > 50 µM | >101 |
| CNC(=S)Nc1cccc(OCCCCCc2ccccc2)c1 | 0.822 µM | > 50 µM | >61 |
| NC(=S)Nc1cccc(OCCCCCOc2ccnc3ccccc23)c1 | 0.411 µM | 24 µM | 58 |
| NC(=S)Nc1cccc(OCCCCCOc2ccc(-n3cccc3)cc2)c1 | 0.255 µM | > 50 µM | >196 |
| NC(=S)Nc1cccc(OCCCCCOc2ccc(-c3cccs3)cc2)c1 | 0.121 µM | > 50 µM | >413 |
| NC(=S)Nc1cccc(OCCCCCOc2ccc(F)cc2)c1 | 0.072 µM | 5 µM | 69 |
| S=C(NCc1ccccc1)Nc1cccc(OCCCCCc2ccccc2)c1 | 7.24 µM | 32 µM | 4 |
| NC(=S)Nc1cccc(OCCCCCOc2ccc(Cl)cc2)c1 | 0.072 µM | 7 µM | 97 |
